Type in all cases: physicochemical
A short description of data set [1]: Concentration of surfactant in filtered saturated solution in distilled water. Particulars: shaken ~24 hours. On the procedure: (§1) Saturated solutions of the materials of Examples 1-9 in distilled water were prepared. After shaking the solutions for ˜24 hours, the undissolved material was removed via filtration. Equilibrium surface tension (EST) data were obtained using the Wilhelmy plate method. Equilibrium surface tension values between 65-72 dyne/cm are considered to be indicative of a lack of surface activity (i.e., a lack of surfactancy).

Data set [2] is described as follows: Equilibrium surface tension (EST), Wilhelmy plate method, saturated aqueous solutions. Particulars: for Limiting EST: saturated solution in distilled water, undissolved material filtered off, Wilhelmy plate. The method, then:
where R^1 and R^2 are C4 to C8 alkyl groups, and at least one of R^1 and R^2 is a branched C4 to C8 alkyl group. […] The Wilhelmy plate method of measuring surface tension is described in L. Wilhelmy's article in Ann. Phys. 1863, 119, 177, which is incorporated by reference.
as §1
The limiting surface tensions represent the lowest surface tensions in water which can be achieved for a given surfactant regardless of the amount of surfactant used and is used to evaluate the effectiveness of a surfactant. Lower surface tensions would allow for the elimination of defects upon application of a formulation onto low energy surfaces.

The nature of data set [3]: Foaming properties of aqueous solutions, procedure based upon ASTM D 1173-53. Particulars: filtrate of aqueous mixture of the tartaramide; for Initial Foam: foam height at completion of addition. The method, then: The foaming properties of aqueous solutions of N,N′-di-iso-pentyl L-tartaramide (Ex 1), N,N′-di-2-ethylhexyl L-tartaramide (Ex 5) and two representative nonionic surfactants, a commercial nonylphenol 15 mole ethoxylate surfactant and a commercial C8 alkyl glucoside surfactant, were examined using a procedure based upon ASTM D 1173-53.
In this test, an aqueous mixture of the tartaramides was prepared, any undissolved solids were filtered off, and the filtrate was added from an elevated glass pipette to a glass receiver containing the same filtrate. Regarding the commercial materials, a 0.1 wt % solution of the surfactant was added from an elevated glass pipette to a glass receiver containing the same solution. The foam height was measured at the completion of the addition (“Initial Foam Height”) and the time required for the foam to dissipate at the air-liquid interface (“Time to 0 Foam”) was recorded. This test provides a comparison between the foaming characteristics of various surfactants. In general, in coatings, inks, adhesives, agricultural and electronics cleaning formulations, foam is undesirable because it complicates handling and can lead to coating and print defects, and to inefficient application of agricultural materials.

Bounds are passed on as bounds.

In the case of `CC(C)CCNC(=O)[C@H](O)[C@@H](O)C(=O)NCCC(C)C` [Ex 1, N,N′-Di-iso-pentyl L-tartaramide], the “Concentration of Surfactant in Solution” value in data set [1] is under 1.5 wt. %. Further, the “Limiting EST” value in data set [2] came out at 48.0 dyne/cm. Further, in data set [3], the “Foam after 5 min” value is 0 cm, the “Time to zero foam” value is recorded as “≦5 sec” and the “Initial Foam” value came to 0.5 cm.

For the compound `CCCCCCC(C)NC(=O)C(O)C(O)C(=O)NC(C)CCCCCC` [Ex 2, N,N′-Di-1-methylheptyl L-tartaramide], the “Concentration of Surfactant in Solution” value in data set [1] was under 0.1 wt. %. In data set [2], the “Limiting EST” value is reported as 39.5 dyne/cm and the “lowering the equilibrium surface tension of water (in words)” value (“lowering the equilibrium surface tension” for short) was “particularly effective”.

Regarding `CC(C)CCCC(C)NC(=O)C(O)C(O)C(=O)NC(C)CCCC(C)C` [Ex 3, N,N′-Di-1,5-dimethylhexyl L-tartaramide], in data set [1], the “Concentration of Surfactant in Solution” value is under 0.1 wt. %. For the same compound, in data set [2], the “Limiting EST” value amounted to 38.0 dyne/cm and the “lowering the equilibrium surface tension” value is “particularly effective”.

For the compound `CCCCCC(C)NC(=O)C(O)C(O)C(=O)NC(C)CCCCC` [Ex 4, N,N′-Di-1-methylhexyl L-tartaramide], in data set [1], the “Concentration of Surfactant in Solution” value is under 0.1 wt. %. Also, in data set [2], the “Limiting EST” value was 41.5 dyne/cm and the “lowering the equilibrium surface tension” value was “particularly effective”.

Regarding `CCCCC(CC)CNC(=O)C(O)C(O)C(=O)NCC(CC)CCCC` [Ex 5, N,N′-Di-2-ethylhexyl L-tartaramide], the “Concentration of Surfactant in Solution” value in data set [1] is given as under 0.1 wt. %. For the same compound, in data set [2], the “Limiting EST” value worked out at 41.4 dyne/cm and the “lowering the equilibrium surface tension” value is “particularly effective”. In data set [3], the “Foam after 5 min” value is 0 cm, the “Time to zero foam” value is reported as “˜3 sec” and the “Initial Foam” value is 1.5 cm.

Regarding `CCCNC(=O)[C@H](O)[C@@H](O)C(=O)NCCC` [Ex 6, N,N′-Di-n-propyl L-tartaramide], the “Concentration of Surfactant in Solution” value in data set [1] is reported as under 1.0 wt. %. Moreover, the “Limiting EST” value in data set [2] stood at 67.7 dyne/cm.

Consider `CCCCNC(=O)[C@H](O)[C@@H](O)C(=O)NCCCC` [Ex 7, N,N′-Di-n-butyl L-tartaramide], for which, in data set [1], the “Concentration of Surfactant in Solution” value is on record as under 1.0 wt. %. Also, the “Limiting EST” value in data set [2] was found to be 65.0 dyne/cm.

As for `CCCCCCNC(=O)[C@H](O)[C@@H](O)C(=O)NCCCCCC` [Ex 8, N,N′-Di-n-hexyl L-tartaramide], in data set [1], the “Concentration of Surfactant in Solution” value was under 0.1 wt. %. For the same compound, the “Limiting EST” value in data set [2] stood at 67.8 dyne/cm.

With `O=C(NC1CCCCC1)[C@H](O)[C@@H](O)C(=O)NC1CCCCC1` [Ex 9, N,N′-Di-cyclohexyl L-tartaramide], the “Concentration of Surfactant in Solution” value in data set [1] is under 0.1 wt. %. For the same compound, in data set [2], the “Limiting EST” value amounted to 67.9 dyne/cm.

Source of the values: patent US6399543B1, “Low foam N,N′-dialkyltartaramide wetting agents” (Air Products and Chemicals, Inc., priority 2001, dated 2002).
